One assay deals with Escherichia coli biofilm. As to the kind of experiment: Escherichia coli biofilm on projections, antibiotic treatment, manual cfu count. It counts as cell-based. The method, then:
(§1) Up to 8 different antibiotics or biocides can be tested by using 1 row (A-H) for each antimicrobial reagent. […] Rinse the remaining projections in PBS using a troughed vessel 20 and place the colonized projections into the 96 well antibiotic plate and incubate overnight at 37° C. […] (3) From the freshly sonicated plate remove 0.02 ml of the medium from each well and spot plate neat; and 0.025 ml from each well to prepare a serial dilution (10^−1 to 10^−6) and spot plate 0.02 ml (dilutions can be done in microtiter plates, one for each antibiotic). Place the plate containing the remaining medium and bacteria to incubate at 37° C., overnight. Day 4: Assay the sessile survival, by for example reading the plate incubated overnight at 490 nm or by counting the colonies on the plates to determine the actual number of surviving bacteria, or by using some other method known in the art. Several different conventional methods may be used to count the bacteria. It may be done by incubating the sonicated bacteria, taking serial dilutions and visually counting the colony forming units, or automated methods may be used, as for example using an optical reader to determine optical density. […] In the case of using vital dye technology, the biofilm need not be further incubated. In a further embodiment, the assay may be carried out by sonicating the cells until they lyse and release ATP and then adding luciferase to produce a mechanically readable light output. In a still further embodiment, the assay may be carried out directly on the biofilm on the projections using a confocal microscope, although it should be considered that this is difficult to automate. […] Examples are given to show a comparison between counts of planktonic bacteria and counts of sessile bacteria for the same growth conditions. […] The initial biofilm was colonized for four hours. The antibiotic was applied to the wells 2-12 of the rows A-H of a 96 well plate as follows: well 2: no antibiotic, well 3: 1000 μg/mL, well 4: 500 μg/mL . . . well 12: 2 μg/mL. 250 μL final volume of diluted antibiotic was applied to the wells.

For assay [1], the system named is staphylococcus aureus biofilm. As to the kind of experiment: staphylococcus aureus biofilm on projections, antibiotic treatment, manual cfu count. It counts as cell-based. The protocol:
as §1, with “dilution (10^-1” for “dilution (10^−1”, “to 10^-6)” for “to 10^−6)”, “The” for “The initial biofilm was colonized for four hours. The”, “rows A-G” for “rows A-H”, “μg/mL.” for “μg/mL. 250 μL final volume of diluted antibiotic was applied to the wells.”

The mark [2] stands for this setting: well 5 of doubling dilutions, well 3: 1000 μg/mL to well 12: 2 μg/mL.
Setting [3] is: well 6 of doubling dilutions, well 3: 1000 μg/mL to well 12: 2 μg/mL ([…] implied).
Setting [4] is: well 7 of doubling dilutions, well 3: 1000 μg/mL to well 12: 2 μg/mL.
The mark [5] stands for this setting: well 8 of doubling dilutions, well 3: 1000 μg/mL to well 12: 2 μg/mL.
[6] abbreviates: well 10 of doubling dilutions, well 3: 1000 μg/mL to well 12: 2 μg/mL ([…] implied).
Setting [7] is: well 11 of doubling dilutions, well 3: 1000 μg/mL to well 12: 2 μg/mL.

Consider `O=C(O)c1cn(C2CC2)c2cc(N3CCNCC3)c(F)cc2c1=O` [G, Ciprofloxacin], for which the “manually counted cfu, Escherichia coli biofilm” value with Escherichia coli biofilm (well 3: 1000 μg/mL antibiotic, biofilm colonized four hours) is 0 cfu; in the assay with Escherichia coli biofilm (well 4: 500 μg/mL antibiotic, biofilm colonized four hours), 0 cfu; in the assay on Escherichia coli biofilm (setting [2]), 0 cfu; with Escherichia coli biofilm (setting [3]), 0 cfu; in the assay with Escherichia coli biofilm (setting [4]), 0 cfu; in the assay on Escherichia coli biofilm (setting [5]), 0 cfu. Besides, the “manually counted cfu, Escherichia coli biofilm” value in the assay on Escherichia coli biofilm (setting [6]) and in the assay with Escherichia coli biofilm (setting [7]) was 0 cfu in each case. Besides, the “manually counted cfu, staphylococcus aureus biofilm” value is 0 cfu in assay [1] (well 3: 1000 μg/mL antibiotic); 0 cfu in assay [1] (well 4: 500 μg/mL antibiotic); 0 cfu in assay [1] (setting [2]); 50 cfu in assay [1] (setting [3]); 1.0 × 10^2 cfu in assay [1] (setting [4]); 50 cfu in assay [1] (setting [5]). Besides, the “manually counted cfu, staphylococcus aureus biofilm” value was 0 cfu in assay [1] (well 9 of doubling dilutions, well 3: 1000 μg/mL to well 12: 2 μg/mL); 0 cfu in assay [1] (setting [6]); 0 cfu in assay [1] (setting [7]); 0 cfu in assay [1] (well 12: 2 μg/mL antibiotic).

Values taken from patent publication US7041470B2, “Method of assaying the susceptibility of biofilms to anti-microbial agents” (University Technologies International, Inc., priority 1996, dated 2006).
